We go through 2 compounds from patent publication US12661415B2, “Isoindolinone compounds and imaging agents for imaging Huntingtin protein” (CHDI Foundation, Inc., priority 2021, dated 2026).

The subject of assay [1] is mHTT aggregates. The assay is described as follows: In situ autoradiography (ARG) binding, human post-mortem brain sections. Particulars: for specific HD binding at 0.3 nM radioligand: human HD brain sections. An excerpt:
In situ autoradiography (ARG) was used to investigate the pharmacological binding characteristics of a tritium-labeled Compound 1-6 (“[^3H]-Compound 1-6”) in the HD mouse model 12-month-old HOM zQ175 and human post-mortem brains from healthy and HD gene-expanded carriers (HDGECs); specificity of binding was explored by including samples from Alzheimer's disease (AD) patients, which contain other pathological aggregates (e.g., Abeta-containing plaques and phosphor-Tau-expressing tangles). Saturation binding experiments were performed in coronal brain sections; [^3H]-Compound 1-6 binding was quantified by densitometric analysis and specific binding was determined in cortex (CTX). Affinity (KD) and maximum number of binding sites (Bmax) were determined for each region of interest (ROI).
The non-fixed and non-embedded frozen brains were sectioned by using a cryostat at −18° C. Thereby, serial coronal tissue sections of 20 μm thickness were mounted on superfrost slides and dried at room temperature for approximately 90 minutes. The slides were stored at −80° C. until the different experiments were conducted, but not longer than 3 weeks. A similar procedure was conducted with fresh-frozen human post-mortem brain blocks (healthy subjects {CTRL}, Huntingon's disease {HD}, and Alzheimer's disease {AD}).
The appropriate number of slides containing the respective tissue sections were acclimated to room temperature for 30 minutes. The slides were then pre-incubated by immersion into 40 mL assay buffer for 20 minutes at room temperature. Following this pre-incubation step, one slide per animal was incubated by immersion into 30 mL of the 10 nM, 3 nM, 1 nM, 0.3 nM, 0.1 nM, 0.03 nM, 0.01 nM, or 0.003 nM Compound 1-6 solutions and one slide was incubated by immersion into 30 mL of 10 nM, 3 nM, 1 nM, 0.3 nM, 0.1 nM, 0.03 nM, 0.01 nM, or 0.003 nM [^3H]-Compound 1-6, plus 10 μM unlabeled Compound 1-6 solutions for 60 minutes at room temperature, respectively. A similar paradigm was performed with tritium-labeled Comparative Compound 3 (“[^3H]-Comparative Compound 3”) and tritium-labeled Comparative Compound 4 (“[^3H]-Comparative Compound 4”). Structures of these comparative compounds and compound 1-6 are shown below.
Afterwards, the slides were washed three times for 10 minutes with 200 mL of ice cold washing buffer at 4° C. and dipped for three seconds in ice cold distilled water to remove buffer salts. The slides were dried for three hours at 30° C. and exposed for 96 hours to Fuji BAS-TR 2015 tritium phosphor screens together with the calibrated tritium standards ART 0123C and ART 0123B. Stored radiation energy on the screen was scanned using the phosphorimager Typhoon FLA 7000.
Densitometric data analysis was performed using the MCID Analysis 7.1 software (Interfocus Imaging Ltd.). Within each brain section, regions of interest (ROI) were defined for STR, CTX, and HPC by using appropriate sample tools, and the software calculated density measures from the gray level values of all pixels within a defined ROI (Molecular dynamics counts per unit area, MDC/mm^2). Densitometric calibration related the optical densities to known concentrations of radioactivity from the calibrated tritium standards (fmol/mg tissue) and mean values were calculated for each ROI of the individual brains. Total binding (TB) and non-specific binding (NSB) of the radioligand were quantified, and specific binding (SB) was derived by subtracting NSB from TB (SB=TB−NSB) for each brain and ROI, respectively. Subsequently, the group mean±standard deviation (SD) was calculated for each ROI and experimental condition. The data were fitted to one-site binding equation using non-linear regression method in GraphPad Prism Software.

Assay [2] has as its target mHTT aggregates (Mus musculus, UniProt P42859). The assay is described as follows: In situ autoradiography (ARG) saturation binding, HOM zQ175 HD mouse model brain sections. Particulars: for Bmax: 12-month-old HOM zQ175, tritium-labeled radioligand. The source says:
In situ autoradiography (ARG) was used to investigate the pharmacological binding characteristics of a tritium-labeled Compound 1-6 (“[^3H]-Compound 1-6”) in the HD mouse model 12-month-old HOM zQ175 and human post-mortem brains from healthy and HD gene-expanded carriers ([…]); specificity of binding was explored by including samples from Alzheimer's disease (AD) patients, which contain other pathological aggregates (e.g., Abeta-containing plaques and phosphor-Tau-expressing tangles). Saturation binding experiments were performed in coronal brain sections; [^3H]-Compound 1-6 binding was quantified by densitometric analysis and specific binding was determined in cortex (CTX). Affinity (KD) and maximum number of binding sites (Bmax) were determined for each region of interest (ROI). At the appropriate ages, HD and WT mice of the different strains were sacrificed by cervical dislocation, and the brains, including cerebellum, were dissected and washed in ice cold PBS. Subsequently, the brains were patted dry on paper towels and transferred into a 6-well plate filled with isopentane that was cooled to a temperature between -30° C. and -40° C. The frozen brains were stored at -80° C. until sectioning. The non-fixed and non-embedded frozen brains were sectioned by using a cryostat at -18° C. Thereby, serial coronal tissue sections of 20 μm thickness were mounted on superfrost slides and dried at room temperature for approximately 90 minutes. The slides were stored at -80° C. until the different experiments were conducted, but not longer than 3 weeks. A similar procedure was conducted with fresh-frozen human post-mortem brain blocks (healthy subjects {CTRL}, Huntingon's disease {HD}, and Alzheimer's disease {AD}). The appropriate number of slides containing the respective tissue sections were acclimated to room temperature for 30 minutes. The slides were then pre-incubated by immersion into 40 mL assay buffer for 20 minutes at room temperature. […] Within each brain section, regions of interest (ROI) were defined for STR, CTX, and HPC by using appropriate sample tools, and the software calculated density measures from the gray level values of all pixels within a defined ROI (Molecular dynamics counts per unit area, MDC/mm^2). Densitometric calibration related the optical densities to known concentrations of radioactivity from the calibrated tritium standards (fmol/mg tissue) and mean values were calculated for each ROI of the individual brains. Total binding (TB) and non-specific binding (NSB) of the radioligand were quantified, and specific binding (SB) was derived by subtracting NSB from TB (SB=TB-NSB) for each brain and ROI, respectively. Subsequently, the group mean±standard deviation (SD) was calculated for each ROI and experimental condition. […]

“Also recorded” adds a separate entry of the source. Some results are limits rather than exact numbers.

Chain of mHTT aggregates (Mus musculus, UniProt P42859) (P42859 whole entry): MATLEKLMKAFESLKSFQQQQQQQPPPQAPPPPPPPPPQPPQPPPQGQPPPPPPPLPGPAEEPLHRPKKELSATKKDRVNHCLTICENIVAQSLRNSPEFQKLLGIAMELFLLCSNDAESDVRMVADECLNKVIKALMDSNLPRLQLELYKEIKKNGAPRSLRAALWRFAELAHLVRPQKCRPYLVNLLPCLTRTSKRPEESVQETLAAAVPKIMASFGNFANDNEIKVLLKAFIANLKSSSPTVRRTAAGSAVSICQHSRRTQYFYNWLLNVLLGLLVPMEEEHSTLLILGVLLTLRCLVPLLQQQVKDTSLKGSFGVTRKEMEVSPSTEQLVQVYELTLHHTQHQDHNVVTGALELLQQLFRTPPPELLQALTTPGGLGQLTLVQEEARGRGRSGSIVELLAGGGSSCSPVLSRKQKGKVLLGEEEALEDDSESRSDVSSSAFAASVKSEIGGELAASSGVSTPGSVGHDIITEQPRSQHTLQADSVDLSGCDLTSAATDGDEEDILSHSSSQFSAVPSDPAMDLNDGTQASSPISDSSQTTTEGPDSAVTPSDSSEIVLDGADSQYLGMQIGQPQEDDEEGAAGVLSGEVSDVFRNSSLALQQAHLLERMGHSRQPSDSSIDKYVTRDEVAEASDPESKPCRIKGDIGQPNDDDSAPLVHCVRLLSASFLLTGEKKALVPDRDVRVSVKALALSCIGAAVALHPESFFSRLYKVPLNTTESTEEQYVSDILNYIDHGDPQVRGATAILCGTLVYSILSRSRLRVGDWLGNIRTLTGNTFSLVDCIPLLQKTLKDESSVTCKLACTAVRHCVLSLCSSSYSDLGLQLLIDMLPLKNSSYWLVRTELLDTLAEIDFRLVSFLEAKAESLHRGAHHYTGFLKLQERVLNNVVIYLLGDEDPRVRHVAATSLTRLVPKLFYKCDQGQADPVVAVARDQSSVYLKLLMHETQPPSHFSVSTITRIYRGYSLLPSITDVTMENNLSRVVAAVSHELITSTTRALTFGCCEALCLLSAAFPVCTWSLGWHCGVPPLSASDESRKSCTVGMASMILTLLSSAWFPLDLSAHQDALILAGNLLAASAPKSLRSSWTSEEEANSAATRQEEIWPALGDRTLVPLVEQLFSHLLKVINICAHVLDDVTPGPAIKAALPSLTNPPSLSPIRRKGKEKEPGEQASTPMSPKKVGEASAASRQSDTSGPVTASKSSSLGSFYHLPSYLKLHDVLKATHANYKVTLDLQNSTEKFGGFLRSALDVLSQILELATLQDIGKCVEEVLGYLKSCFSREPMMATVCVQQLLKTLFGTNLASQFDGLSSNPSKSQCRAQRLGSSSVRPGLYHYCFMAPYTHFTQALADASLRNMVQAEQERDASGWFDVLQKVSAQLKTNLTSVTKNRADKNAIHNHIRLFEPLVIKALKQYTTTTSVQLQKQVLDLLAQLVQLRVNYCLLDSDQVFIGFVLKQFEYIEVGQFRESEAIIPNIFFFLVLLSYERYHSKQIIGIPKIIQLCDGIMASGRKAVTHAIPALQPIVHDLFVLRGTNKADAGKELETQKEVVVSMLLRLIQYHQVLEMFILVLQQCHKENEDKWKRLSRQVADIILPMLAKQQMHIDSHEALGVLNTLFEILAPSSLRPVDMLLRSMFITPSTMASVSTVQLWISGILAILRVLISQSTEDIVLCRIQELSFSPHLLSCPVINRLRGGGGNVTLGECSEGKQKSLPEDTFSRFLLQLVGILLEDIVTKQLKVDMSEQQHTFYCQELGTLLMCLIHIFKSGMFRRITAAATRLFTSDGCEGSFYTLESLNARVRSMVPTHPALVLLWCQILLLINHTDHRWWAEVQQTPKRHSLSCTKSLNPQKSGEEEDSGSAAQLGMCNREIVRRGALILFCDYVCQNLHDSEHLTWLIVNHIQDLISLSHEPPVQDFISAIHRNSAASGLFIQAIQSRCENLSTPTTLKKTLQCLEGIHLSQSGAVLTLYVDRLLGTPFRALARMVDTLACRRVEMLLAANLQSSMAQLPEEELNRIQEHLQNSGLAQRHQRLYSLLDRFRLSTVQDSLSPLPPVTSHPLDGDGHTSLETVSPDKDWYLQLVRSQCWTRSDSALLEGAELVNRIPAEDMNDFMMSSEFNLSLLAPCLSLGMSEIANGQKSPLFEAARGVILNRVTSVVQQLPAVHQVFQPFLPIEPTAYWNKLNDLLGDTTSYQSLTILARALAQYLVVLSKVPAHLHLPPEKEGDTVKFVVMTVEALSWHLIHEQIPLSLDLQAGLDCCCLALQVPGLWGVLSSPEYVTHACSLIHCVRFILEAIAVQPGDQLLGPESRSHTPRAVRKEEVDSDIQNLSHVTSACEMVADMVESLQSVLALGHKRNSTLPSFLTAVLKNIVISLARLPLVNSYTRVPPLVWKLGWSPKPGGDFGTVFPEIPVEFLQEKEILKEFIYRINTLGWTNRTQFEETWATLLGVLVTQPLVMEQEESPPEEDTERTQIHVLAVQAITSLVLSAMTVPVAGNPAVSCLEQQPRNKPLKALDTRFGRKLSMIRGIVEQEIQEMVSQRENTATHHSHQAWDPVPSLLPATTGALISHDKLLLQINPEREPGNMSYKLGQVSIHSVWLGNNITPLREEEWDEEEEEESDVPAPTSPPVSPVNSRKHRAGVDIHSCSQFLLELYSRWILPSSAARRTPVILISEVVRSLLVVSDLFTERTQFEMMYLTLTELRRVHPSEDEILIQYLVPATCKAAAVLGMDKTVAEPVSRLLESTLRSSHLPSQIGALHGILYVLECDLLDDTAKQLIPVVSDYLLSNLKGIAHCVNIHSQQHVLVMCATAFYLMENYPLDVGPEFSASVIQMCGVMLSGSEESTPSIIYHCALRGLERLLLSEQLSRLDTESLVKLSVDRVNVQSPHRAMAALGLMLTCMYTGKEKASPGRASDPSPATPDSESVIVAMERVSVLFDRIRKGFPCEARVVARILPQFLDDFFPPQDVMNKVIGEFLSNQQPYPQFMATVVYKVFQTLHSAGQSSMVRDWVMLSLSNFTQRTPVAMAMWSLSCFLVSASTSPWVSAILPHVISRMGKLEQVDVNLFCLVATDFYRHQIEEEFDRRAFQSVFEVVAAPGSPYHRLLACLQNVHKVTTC

For the compound `COc1ccc(NC(=O)c2ccn3c(n2)nc2ccccc23)cn1` [[^3H]-Comparative Compound 3, reference compound], the “specific HD binding at 0.3 nM radioligand” value with mHTT aggregates [1] is listed as “no HD binding was detectable; also recorded: failed to reveal HD binding”. The Bmax on mHTT aggregates [2] (cortex) was 169 fmol/mg.
In the case of `COc1ccc(COc2ccc3c(c2)CN(c2ccc(=O)n(C)n2)C3=O)nc1` [[^3H]-Compound 1-6], in the assay on mHTT aggregates [1] (cortex brain sections from AD patients), the “specific binding, AD patients” value is listed as 0.1±0.0 fmol/mg tissue. In addition, the “specific binding, HD donors” value in the assay with mHTT aggregates [1] (frontal cortical sections from HD donors) was determined as 0.8±0.2 fmol/mg tissue. Besides, the “specific binding, CTRL tissue” value with mHTT aggregates [1] (frontal cortical sections, healthy subjects (CTRL)) is given as 0.0±0.0 fmol/mg tissue. In addition, the “specific HD binding at 0.3 nM radioligand” value in the assay on mHTT aggregates [1] is given as “significant specific HD binding was detectable; also recorded: binds selectively to human HD brain sections”. The “binding to healthy control or Alzheimer's disease brain sections” value with mHTT aggregates [1] (human post-mortem brain sections) is “little to no binding”. Further, the “binding density to juvenile HD brain” value in the assay on mHTT aggregates [1] (juvenile HD sample (one case) vs adult-onset HD brains) is given as “highest binding density”. Also, the white matter binding with mHTT aggregates [1] (post-mortem human brain, white matter) is listed as no more than 0.5 fmol/mg tissue. Moreover, the “binding to WT brain sections” value on mHTT aggregates [2] (WT mouse brain sections, only detectable above LLoQ (0.5 fmol/mg tissue) at 3 nM and 10 nM) is “minor”. The “Bmax (concentration of specific binding sites)” value on mHTT aggregates [2] (cortex, 12-month-old HOM zQ175) was found to be 448.6 fmol/mg tissue. This compound gave a Bmax on mHTT aggregates [2] (cortex) of 448 fmol/mg.
